The values below come from patent US8143288B2, “Inhibitors of HCV replication” (priority 2005, dated 2012).

The experiment has as its system HCV 1b-377-neo replicon cells. The experiment can be described thus: HCV replicon FRET assay. The class given is cell-based. To be noted: Hepatitis C virus; HCV replicon; read-out: Activity (EC50). The source says: The HCV replicon cell line was isolated from colonies as described by Lohman, et. al. (Science 1999, 285, 110-113, expressly incorporated by reference in its entirety) and used for all experiments. The HCV replicon has the nucleic acid sequence set forth in EMBL Accession No.: AJ242652, the coding sequence of which is from nt 1801 to 7758.
The coding sequence of the published HCV replicon was synthesized by Operon Technologies, Inc. (Alameda, Calif.), and the fall-length replicon was then assembled in plasmid pGem9zf(+) (Promega, Madison, Wis.) using standard molecular biology techniques. The replicon consists of (i) the HCV 5′ UTR fused to the first 12 amino acids of the capsid protein, (ii) the neomycin phosphotransferase gene (neo), (iii) the IRES from encephalomyocarditis virus (EMCV), and (iv) HCV NS3 to NS5B genes and the HCV 3′ UTR. Plasmid DNAs were linearized with ScaI and RNA transcripts were synthesized in vitro using the T7 MegaScript transcription kit (Ambion, Austin, Tex.) according to manufacturer's directions.
To generate cell lines, 4×10^6 Huh-7 cells (kindly provided by R. Bartenschlager and available from Health Science Research Resources Bank, Japan Health Sciences Foundation) were electroporated (GenePulser System, Bio-Rad) with 10 micrograms(“μg”) of RNA transcript and plated into 100-mm dishes. After 24 hours, selective media containing 1.0 milligrams/milliliter (“mg/mL”) G418 was added and media was changed every 3 to 5 days. […] These cell lines were maintained at 37° C., 5% CO2, 100% relative humidity in DMEM (Cat#11965-084) Gibco-BRL, Rockville, Md., with 10% heat inactivated calf serum (Sigma), 10 mL of 100× penicillin/streptomycin (Cat#15140-122) Gibco-BRL, Rockville, Md., Geneticin (Cat#10131-027) Gibco-BRL, Rockville, Md. at 1 mg/mL. One of the cell lines (deposited as ATCC Accession No. PTA-4583 in the American Type Culture Collection) which had approximately 3,000 copies of HCV replicon RNA/cell was used for development of the assay (HCV 1b-377-neo replicon cells).
To perform the HCV FRET screening assay, 96-well cell culture plates were used. The FRET peptide (Anaspec, Inc., San Jose, Calif.) (Taliani et al., Anal. Biochem. 1996, 240, 60-67, hereby incorporated by reference in its entirety) contains a fluorescence donor, EDANS, near one end of the peptide and an acceptor, DABCYL, near the other end. The fluorescence of the peptide is quenched by […] resonance energy transfer (RET) between the donor and the acceptor, but as the NS3 protease cleaves the peptide the products are released from RET quenching and the fluorescence of the donor becomes apparent.
The assay reagent was made as follows: 5X luciferase cell culture lysis (Cat#E153A, Promega, Madison, Wis.) diluted to 1X with dH2O, NaCl added to […] final, the FRET peptide diluted to 20 micromolar (“μM”) final from a 2 mM stock. HCV 1b-377-neo replicon cells were trypsinized, placed into each well of a 96-well plate and allowed to attach overnight. The next day, the test compounds were added to columns 1 through 10; column 11 was media plus DMSO only, and column 12 contained a titration of interferon or an HCV specific inhibitor as a control (1000 units for A12, B12, 100 units for C12, D12, 10 units for E12, F12 and 1 unit for G12, H12). […] In addition, naïve Huh-7 cells could also be used to replace wells A12 and B12 as a background control.
At subsequent various times (typically 72 hours), 10% final volume Alamar blue (Cat#00-100, Trek Diagnostics, Cleveland, Ohio) was added to each well. The plates were returned to the incubator for 5 hours and then read in the Cytoflour (PE Biosystems) to determine Alamar blue conversion in each well as a measure of cellular toxicity.
Turning to `CCc1ccncc1C(=O)N1CCC[C@H]1C(=O)Nc1ccc(/C=C/c2ccc(NC(=O)[C@@H]3CCCN3C(=O)c3cnccc3CC)cc2)cc1` [Example 197], the EC50 fell in the range of 100 to 1000 nM. With `COc1ccccc1C(=O)N1CCC[C@H]1C(=O)Nc1ccc(/C=C/c2ccc(NC(=O)[C@@H]3CCCN3C(=O)c3ccccc3OC)cc2)cc1` [Example 133], the EC50 was 1000 to 10000 nM. On to `COCC(=O)N1CCC[C@H]1C(=O)Nc1ccc(/C=C/c2ccc(NC(=O)[C@@H]3CCCN3C(=O)COC)cc2)cc1` [Example 47], for which the EC50 lay in the range of 100 to 1000 nM. Then `C[C@H](NC(=O)Cc1ccccc1)C(=O)Nc1ccc(/C=C/c2ccc(NC(=O)[C@@H]3CCCN3C(=O)Cc3ccccc3)cc2)cc1` [Example 271], with 0.1 to 90 nM.

Consider `Cc1cc(CC(=O)N2CCC[C@H]2C(=O)Nc2ccc(/C=C/c3ccc(NC(=O)[C@@H]4CCCN4C(=O)C4CCC4)cc3)cc2)on1` [Example 96], for which the EC50 lay in the range of 0.1 to 90 nM.

Regarding `CC(C)(C)O[C@@H]1C[C@@H](C(=O)Nc2ccc(/C=C/c3ccc(NC(=O)C4CC4)cc3)cc2)N(C(=O)OCc2ccccc2)C1` [Example 259], the EC50 was 100 to 1000 nM.

Consider `CN(C(=O)[C@@H]1CCCN1C(=O)OCc1ccccc1)c1ccc(/C=C/c2ccc(N(C)C(=O)[C@@H]3CCCN3C(=O)OCc3ccccc3)cc2)cc1` [Example 244], for which the EC50 is 1000 to 10000 nM. Consider `CC(=O)N1CC=C[C@H]1C(=O)Nc1ccc(/C=C/c2ccc(NC(=O)[C@@H]3C=CCN3C(C)=O)cc2)cc1` [Example 217], for which the EC50 lay within 0.1 to 90 nM. Turning to `O=C(Nc1ccc(/C=C/c2ccc(NC(=O)[C@@H]3CCCN3C(=O)Cc3ccccc3F)cc2)cc1)[C@@H]1CCCN1C(=O)Cc1ccccc1F` [Example 106], the EC50 was in the range of 0.1 to 90 nM. Take `CSCC(=O)N1CCC[C@H]1C(=O)Nc1ccc(/C=C/c2ccc(NC(=O)[C@@H]3CCCN3C(=O)c3ccccn3)cc2)cc1` [Example 84]: the EC50 lay within 0.1 to 90 nM.

Consider `[N-]=[N+]=Nc1ccc(C(=O)N2CCC[C@H]2C(=O)Nc2ccc(/C=C/c3ccc(NC(=O)[C@@H]4CCCN4C(=O)Cc4ccccc4)cc3)cc2)cc1` [Example 118], for which the EC50 lay within 0.1 to 90 nM. In the case of `Cc1cccc(C(=O)N2CCC[C@H]2C(=O)Nc2ccc(/C=C/c3ccc(NC(=O)[C@@H]4CCCN4)cc3)cc2)n1` [Example 113], the EC50 is 1000 to 10000 nM.

Take `CN(C)[C@@H](C(=O)N1CCC[C@H]1C(=O)Nc1ccc(/C=C/c2ccc(NC(=O)[C@@H]3CCCN3C(=O)[C@@H](c3ccccc3)N(C)C)cc2)cc1)c1ccccc1` [Example 296]: the EC50 was 0.1 to 90 nM.

Turning to `CCC(=O)N1CCC[C@H]1C(=O)Nc1ccc(/C=C/c2ccc(NC(=O)[C@@H]3CCCN3C(=O)Cc3cccs3)cc2)cc1` [Example 103], the EC50 was 0.1 to 90 nM. With `O=C(Nc1ccc(/C=C/c2ccc(NC(=O)[C@@H]3CCCN3C(=O)c3c[nH]cn3)cc2)cc1)[C@@H]1CCCN1C(=O)c1c[nH]cn1` [Example 210], the EC50 fell in the range of 1000 to 10000 nM. Turning to `CC(C)(C)OC(=O)NC1(C(=O)N2CCC[C@H]2C(=O)Nc2ccc(/C=C/c3ccc(NC(=O)[C@@H]4CCCN4C(=O)C4(NC(=O)OC(C)(C)C)CC4)cc3)cc2)CC1` [Example 55], the EC50 lay in the range of 100 to 1000 nM. Take `CC(=O)N1CC=C[C@H]1C(=O)Nc1ccc(/C=C/c2ccc(NC(=O)[C@@H]3C=CCN3C(=O)Cc3cccnc3)cc2)cc1` [Example 219]: the EC50 was in the range of 0.1 to 90 nM. The same measure for `O=C(Nc1ccc(/C=C/c2ccc(NC(=O)[C@@H]3CCCN3C(=O)c3ccccc3-c3ccccc3)cc2)cc1)[C@@H]1CCCN1C(=O)c1ccccc1-c1ccccc1` [Example 166]: 1000 to 10000 nM; for `O=C(Nc1ccc(/C=C/c2ccc(NC(=O)[C@@H]3CCCN3C(=O)N3CCOCC3)cc2)cc1)[C@@H]1CCCN1C(=O)N1CCOCC1` [Example 287]: 0.1 to 90 nM; for `CC(=O)N1CCC[C@H]1C(=O)Nc1ccc(/C=C/c2ccc(NC(=O)[C@@H]3CCCN3C(=O)Cc3ccncc3)cc2)cc1` [Example 51]: 100 to 1000 nM. `COCC(=O)N1CCC[C@H]1C(=O)Nc1ccc(/C=C/c2ccc(NC(=O)[C@@H]3CCCN3C(=O)Cc3cccs3)cc2)cc1` [Example 100]: the EC50 lay in the range of 0.1 to 90 nM.
